{"source": "patent US9522163B2", "about": "“Methods of treating hepatitis” (priority 2002, dated 2016)", "key": {"[1]": {"system": "TNF-α/D-gal-induced liver injury", "procedure": "Male C57BL/6J ([…], Bar Harbor, Me.), 8-12-wk-old inos^−/− mice and wild type littermates (bred/maintained at the University of Pittsburgh) were used for in vivo experiments.\n10 mg/kg subcutaneously (s.c.), Alexis Biochem., San Diego, Calif.) or cobalt protoporphyrin (CoPP, 5 mg/kg, intraperitoneally (i.p.), Frontier Scientific, Logan, Utah). […] Where indicated, acetaminophen (Sigma Chem. Co.; St Louis, Mo.) was administered (500 mg/kg, i.p.).\nA CO analyzer (Interscan, Chatsworth, Calif.) was used to measure CO levels continuously in the chamber. CO concentrations were maintained at 250 ppm at all times. Mice were placed in the exposure chamber as required.\nWhether HO-1 is protective against acute hepatic failure was investigated. Cobalt protoporphyrin (5 mg/kg, i.p.) was administered to male C57BL/6J mice. Twenty-four hours later, TNF-α/D-gal (0.3 μg/8 mg/mouse, i.p., respectively) was administered to the mice. Serum alanine aminotransferase (ALT) levels in the mice were measured 8 hours after administration of TNF-α/D-gal.\nAfter receiving TNF-α/D-gal, mice were returned to the CO exposure chamber and their serum was analyzed for ALT levels 6-8 hr later.\nTo generate the data presented in FIGS. 11A-11H, liver samples from mice treated with TNF-α/D-gal in the presence and absence of CO (250 ppm) for 8 hr were sectioned and stained for hematoxylin & eosin (H&E), activated caspase 3 (as indicated by an increase in red intensity), and for TUNEL positive cells (as demarcated by the increased green cellular staining; a marker of cell death). Nuclei stained blue.\nL-NIL was administered 2 hr prior to CO. CO-treated animals were then pre-treated (250 ppm) for 1 hr prior to TNF-α/D-gal.\nVP was selectively designed to deliver NO directly to the liver. One hour after the initial VP dose, the animals were exposed to CO for 1 hr prior to administration of TNF-α/D-gal (see above). Serum ALT levels were determined 6-8 hr later.\nThese mice and inos^−/− mice were then administered CoPP. L-NIL was maintained in the water throughout the experiment. Control and inos^−/− mice received normal drinking water. Twenty-four hr after administration of CoPP, TNF-α/D-gal was administered and serum ALT determined 6-8 hr later."}, "HO-1": {"system": "HO-1", "experiment": "Liver HO-1 expression (immunoblot)", "type": "in vivo, mice", "settings": "L-NIL 5 mg/kg i.p., room air", "procedure": "Western blot analysis was performed on primary hepatocytes in culture or from liver homogenates with antibodies to iNOS (Transduction Laboratories, Lexington, Ky.; 1:1000), HO-1 (Calbiochem; 1:2000), or β-actin (Sigma Chemical; 1:5000). Thirty μg protein in cell culture experiments or 100 μg protein from liver homogenates was loaded per well for SDS-PAGE.\nTo assess the role of iNOS on TNF-α/D-gal-induced HO-1 expression in the liver (data presented in FIG. 16), mice were administered L-NIL (5 mg/kg, i.p.) 2 hr prior to pre-treatment with CO (250 ppm) and every 2 hr thereafter. Control mice received L-NIL and remained in room air."}, "[2]": {"system": "mouse primary hepatocytes", "experiment": "TNF-α/ActD-induced cell death, crystal violet viability", "type": "cell-based", "procedure": "Mouse primary hepatocytes were harvested from C57BL/6J, mkk3^−/−, inos^−/− (in-house breeding colony), or hmox-1^−/− mice as described in Kim et al. (J. Biol. Chem. 272: 1402-1411 (1997)). Hepatocytes were used on days 1-3 following harvest.\nCells were treated with TNF-α (10 ng/ml) and actinomycin-D (Act-D; 200 ng/ml, Sigma Chemical Co. St. Louis, Mo.) to induce cell death.\nWhether exogenous CO is protective against hepatocyte cell death in vitro was investigated. To generate the data presented in FIG. 2, mouse hepatocytes were pre-incubated with CO (250 ppm) for 1 hr (standard pre-treatment time for all experiments) prior to addition of TNF-α/Act-D (10 ng/200 ng/ml respectively). Cells were maintained in CO for the duration of the experiment. Twelve hours afterward, cell viability was measured as described in Kim et al. (J. Biol. Chem. 272: 1402-1411 (1997)). Adenoviral experiments involved incubating hepatocytes overnight with 10 pfu/cell of the adenovirus prior to addition of TNF-α/ActD, and then assaying for viability using crystal violet. The roles of signaling molecules guanylyl cyclase and p38 MAPK were also investigated in this model. To evaluate the role of cGMP and confirm the role of NF-κB, hepatocytes were treated separately with the soluble guanylate cyclase (sGC) inhibitor 1H-[1,2,4]Oxadiazolo[4,3-a]quinoxalin-1-one (ODQ; Calbiochem; 2-10 μM) or the NF-κB inhibitor BAY 11-7082, (10 μM). Cells were treated with the inhibitors for 1 hour prior to the 1 hour pretreatment with CO. TNF-α/ActD was then added and the cells tested for viability 12 hours later. NF-κB activation was critical to the protection elicited by CO while cGMP was not involved.\nTo generate the data presented in FIG. 9, mouse hepatocytes were isolated from inos^−/− or from wild type C57BL/6J mice, which were then pre-treated for 1 hr with L-NIO (1 mM) to inhibit iNOS prior to CO administration. Those groups exposed to CO received a one-hour pretreatment prior to addition of TNF-α/ActD and were then returned to CO exposure.\nTo generate the data presented in FIG. 19, mouse hepatocytes were isolated from HO-1 null mice (hmox-1^−/−) and wild type (C57BL/6J) littermates, pretreated for 1 hour with CO (250 ppm), and treated with TNF-α/ActD. Viability was assayed as described above.\nTo generate the data presented in FIG. 20, mouse hepatocytes were isolated from HO-1 null mice (hmox-1^−/−) and wild type (C57BL/6J) littermates, pretreated with the NO donor SNAP (500 μM), and then treated with TNF-α/ActD 1 hour later."}, "iNOS": {"system": "iNOS", "experiment": "iNOS promoter luciferase reporter assay in hepatocytes", "type": "cell-based", "settings": "BAY 11-7082 10 μM 1 hr prior to CO", "procedure": "In some experiments, gene transfer of an IκBα superrepressor (Hellerbrand et al., Hepatology 27:1285-1295 (1998)) or β-galactosidase using adenoviral vectors (10 pfu/cell) was performed 12 hours prior to TNF-α/ActD treatment. NF-κB activation was evaluated using a luciferase reporter assay as described in Chow et al. (J. Biol. Chem. 274: 10689-10692 (1999)). Briefly, hepatocytes were co-transfected with NF-κB reporter constructs (pGL3-kappaβ luciferase, 100 ng/well; and pIEP-Lac-z 0.5 μg/well) using Lipofectin™ (Invitrogen, Carlsbad, Calif.) as instructed by the manufacturer. Evaluation of iNOS expression was performed using a luciferase reporter assay as described in Lowenstein et al. (Proc. Natl. Acad. Sci. U.S.A 90: 9730-9734 (1993)). Briefly, hepatocytes were co-transfected with iNOS promoter reporter constructs (pXP2; 1 μg/well) and pIEP-LacZ (0.5 μg/well) as described above.\nHepatocytes were transfected with plasmids as described above and treated with various stimuli 24 hours after transfection. Luciferase activity (reported as arbitrary units; A.U.) was assayed 6 hours after initiation of treatment, using a luciferase assay kit (Promega, Madison, Wis.) and a Berthold Luminometer. Results were corrected for transfection efficiency and protein concentration. […]"}, "[3]": {"system": "mouse primary hepatocytes", "experiment": "TNF-α/ActD-induced cell death, crystal violet viability", "type": "cell-based", "settings": "BAY 11-7082 (10 μM) to inhibit NF-κB activation"}, "[4]": {"settings": "SNAP 500 μM, 1 hour before TNF-α/ActD"}}}
{"smiles": "CC(=N)NCCCC[C@H](N)C(=O)O.Cl.Cl", "note": "[L-NIL, L-N6-(1-iminoethyl)-lysine-dihydrochloride, reference compound]", "values": [{"measurement": "Severity of liver injury, L-NIL alone", "setting": "[1]; L-NIL 4.5 mM in drinking water, TNF-α/D-gal", "value": "did not change the severity of injury"}, {"measurement": "Liver HO-1 expression, L-NIL alone", "setting": "HO-1", "value": "minimal effect"}]}
{"smiles": "O=c1onc2cnc3ccccc3n12", "note": "[ODQ, 1H-[1,2,4]Oxadiazolo[4,3-a]quinoxalin-1-one, reference compound]", "values": [{"measurement": "Effect on protection provided by CO", "setting": "[2]; ODQ 2-10 μM, 1 hour prior to CO pretreatment", "value": "did not reverse the protection"}]}
{"smiles": "C=CC1=C(C)c2cc3[n-]c(cc4nc(cc5[n-]c(cc1n2)c(C)c5CCC(=O)[O-])C(CCC(=O)[O-])=C4C)c(C)c3C=C.[Co+2].[H+].[H+]", "note": "[CoPP, cobalt protoporphyrin]", "values": [{"measurement": "Liver injury as measured by serum ALT", "setting": "[1]; 5 mg/kg i.p. 24 h before TNF-α/D-gal, ALT 8 hours after, C57BL/6J mice", "value": "prevented liver injury"}, {"measurement": "Liver injury", "setting": "[1]; CoPP with and without L-NIL (4.5 mM drinking water), TNF-α/D-gal 24 hours after CoPP", "value": "protected from liver injury"}, {"measurement": "Reduction in serum ALT", "setting": "[1]; inos−/− mice, CoPP 24 hr before TNF-α/D-gal, 6-8 hr later", "value": "> 50", "unit": "%"}]}
{"smiles": "C=Cc1c2[n-]c(c1C)/C=c1\\[n-]/c(c(C)c1C=C)=C\\c1[n-]c(c(CCC(=O)O)c1C)/C=c1\\[n-]c(c(C)c1CCC(=O)O)=C2.[Sn+4]", "note": "[SnPP, tin protoporphyrin]", "values": [{"measurement": "Effect on the protective effects of CO", "setting": "[1]; SnPP 50 μmol/kg s.c. 5 hr prior to CO, TNF-α/D-gal", "value": "significantly diminished"}, {"measurement": "Effect on protection by the NO donor V-PYRRO/NO", "setting": "[1]; TNF-α/D-gal with SnPP", "value": "abrogated"}, {"measurement": "Effect of administration in the absence of TNF-α/D-gal", "setting": "[1]; data not shown", "value": "no deleterious or protective effects"}]}
{"smiles": "CC(=O)N[C@H](C(=O)O)C(C)(C)SN=O", "note": "[SNAP, s-nitroso-N-acetyl-penicillamine, reference compound]", "values": [{"measurement": "TNF-α/ActD-induced cell death, hmox-1−/− hepatocytes", "setting": "[2]; [4]", "value": "did not provide significant protection"}, {"measurement": "TNF-α/ActD-induced cell death, wild type hepatocytes", "setting": "[2]; [4]", "value": "significantly protected against cell death"}]}
{"smiles": "Cc1ccc(S(=O)(=O)/C=C/C#N)cc1", "note": "[BAY 11-7082, reference compound]", "values": [{"measurement": "iNOS luciferase reporter activity with NF-κB inhibitor", "setting": "iNOS", "value": "decreased reporter activity"}, {"measurement": "Effect on the protective effects of CO", "setting": "[3]", "value": "abrogated"}]}
